Tests used:
mice = assay: Paw inflammation after intraplantar injection (paw thickness, neutrophil infiltration); assay type: in vivo, mouse; details: WT mice; for paw thickness after intraplantar protease: calipers
From the text: Proteases may induce pain by activating PAR2 on nociceptors or other cell types. To determine the contribution of PAR2 on nociceptors, mice were bred expressing PAR2 flanked by LoxP sites (Par2^lox/lox) with mice expressing Cre recombinase targeted to nociceptors using the NaV1.8 promoter (Scn10a) (Stirling L. C. et al., Pain 2005, 113(1-2): 27-36). Par2-NaV1.8 mice lacked immunoreactive PAR2 in NaV1.8-positive nociceptors (FIG. 1A). Whereas 31% (20 of 65) of small-diameter (<25 μm) DRG neurons from WT mice responded to trypsin (100 nM) with increased [Ca^2+]i, only 6% (3 of 51) of neurons from Par2-NaV1.8 mice responded (FIGS. 1B, 11A, and 11B). Nociception was assessed by measuring withdrawal responses to stimulation of the plantar surface of the hindpaw with von Frey filaments. […] In Par2-NaV1.8 mice, the initial responses were maintained, but responses after 120 min were diminished. […] Trypsin-induced inflammation was markedly diminished in Par2-NaV1.8 mice.
Mice were acclimatized to the experimental apparatus, room and investigator for 1-2 h on 2 successive days before studies. Investigators were blinded to the test agents. Mice were sedated (5% isoflurane) for intraplantar injections. Dy4a, Dy4 inact, PS2, PS2 inact (all 50 μM) or vehicle (0.2% DMSO in 0.9% NaCl) (10 μl) was injected into the left hindpaw. After 30 min, trypsin (10 or 80 nM), CS (2.5 or 5 μM) or NE (1.2 or 3.9 μM) (all 10 μl) was injected into the same hindpaw. Mechanical nociceptive responses were evaluated by examining paw withdrawal to stimulation of the plantar surface of the hind-paw with calibrated von Frey filaments. von Frey scores were measured in triplicate to establish a baseline for each animal on the day before experiments, and were then measured for up to 4 h after protease administration. To assess edema, paw thickness was measured at the site of injection between the plantar and the dorsal surfaces of the paw using digital calipers. […] Ly6G/Ly6c was detected with goat anti-rat horseradish peroxidase conjugated multimer incubated for 16 min.

PAR2-RLuc8/βARR2-YFP = target: T1, PAR2-RLuc8/βARR2-YFP (Homo sapiens, UniProt P55085); assay: BRET assay of βARR2 recruitment in DRG neurons; assay type: cell-based; details: mouse DRG neurons
T1 construct: expressed in transfected cells; host or cells: mouse (C57BL/6) DRG neurons, nucleofection
T1 sequence (P55085 26-397): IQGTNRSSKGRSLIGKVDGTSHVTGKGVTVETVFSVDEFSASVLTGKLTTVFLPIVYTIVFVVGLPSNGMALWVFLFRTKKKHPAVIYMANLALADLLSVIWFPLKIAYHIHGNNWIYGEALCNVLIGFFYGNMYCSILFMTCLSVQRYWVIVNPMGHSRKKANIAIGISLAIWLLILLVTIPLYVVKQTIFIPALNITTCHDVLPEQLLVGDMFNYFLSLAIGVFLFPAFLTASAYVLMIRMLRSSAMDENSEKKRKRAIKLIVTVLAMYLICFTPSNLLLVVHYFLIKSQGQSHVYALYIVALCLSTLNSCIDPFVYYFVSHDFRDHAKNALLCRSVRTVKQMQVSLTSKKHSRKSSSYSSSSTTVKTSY
Description: To assess endocytosis of PAR2 in nociceptors, mouse (m) PAR2-GFP was transfected in to mouse DRG neurons. In vehicle-treated neurons, mPAR2-GFP was detected at the plasma membrane and in intracellular compartments that may correspond to stores of PAR2 in the Golgi apparatus (FIG. 4A) (Jensen D. D., et al. J Biol Chem. 2016, 291(21): 11285-11299). Trypsin, but not NE or CS (100 nM, 30 min), induced mPAR2-GFP endocytosis (FIG. 4A, B). Dy4, but not Dy4 inact, inhibited trypsin-induced endocytosis of mPAR2-GFP (FIG. 4C). To determine whether PAR2 recruits βARRs, which mediate endocytosis, Bioluminescence Resonance Energy Transfer (BRET) sensors were expressed for PAR2-RLuc8 (donor) and βARR2-YFP (acceptor) in mouse DRG neurons. Trypsin, but not NE or CS, increased PAR2-RLuc8/βARR2-YFP BRET (FIG. 4D).
DRG were collected from C57BL/6 mice and Sprague-Dawley rats (all levels). […]
Mouse DRG neurons were equilibrated in HBSS-HEPES (30 min, 37° C.), and incubated with the Renilla luciferase substrate coelenterazine h (NanoLight Technologies) (5 μM, 5 min). BRET ratios were measured at 475±30 nm and 535±30 nm using a CLARIOstar Monochronometer Microplate Reader (BMG LabTech) before and after challenge with trypsin (10 nM), NE (100 nM) or CS (100 nM). Data are presented as a BRET ratio, calculated as the ratio of YFP to RLuc8 signals, and normalized to the baseline average. […]

Row | PAR2-RLuc8/βARR2-YFP BRET (PAR2-RLuc8/βARR2-YFP) | Substance | paw thickness after intraplantar protease (mice) | neutrophil influx into the paw (mice; after 4 h)
1 | not | NE: protease (elastase) activating PAR2 by biased mechanisms | increased paw thickness | –
2 | increased | trypsin | increased paw thickness | stimulated an influx of neutrophils

— US20200383985A1, “Inhibitors of Protease Activated Receptor-2” (Endosome Therapeutics, Inc., priority 2017, published 2020)
